Reference: patent US20230235277A1, “3D Tissue Culture Materials and Processes for Producing Same” (INSPHERO AG, priority 2014, published 2023)
Entries after “also recorded” stand apart in the source; their conditions may differ.

Key:
human liver microtissues [1] = test: Long-term toxicity testing with human liver microtissues, 14 days treatment with 3 re-dosing; type: cell-based; details: 336 h, read-out: IC50 value of toxicity (cell death), dose-response
[2] = tested on: 2D cultures of human hepatocytes; test: Toxicity in 2D cultures of human hepatocytes; type: cell-based; details: Hepatocyte, read-out: calculated IC50 value in 2D cultures of human hepatocytes
human liver microtissues [3] = test: Inflammation-mediated toxicity testing with human liver microtissues in presence and absence of LPS; type: cell-based
IL-6 secretion = test: Quantification of IL-6 secretion of liver microtissues by ELISA after LPS induction; type: cell-based, human; details: hepatosphere induced for 48 h with 10 µg/ml LPS

Q: What does the source list for `O=C(O)Cc1ccccc1Nc1c(Cl)cccc1Cl` [diclofenac]?
A: IC50 (human liver microtissues [1]): 179 µM; IC50 [2]: 331 µM

Q: Which IC50 (human liver microtissues [3]; absence of LPS (−LPS), read-out: IC50 (hepatotoxic threshold) of induced toxicity without LPS) does the source give for `N[C@@H]1[C@H]2CN(c3nc4c(cc3F)c(=O)c(C(=O)O)cn4-c3ccc(F)cc3F)C[C@@H]12` [trovafloxacin] here?
A: The IC50 was 220 µM.

Q: And the IC50 (human liver microtissues [3]; presence of LPS (+LPS), read-out: IC50 (hepatotoxic threshold) of induced toxicity in the presence of LPS)?
A: The IC50 was 71 µM.

Q: How did the IC50 (human liver microtissues [1]) turn out when `CC(=O)Nc1ccc(O)cc1` [acetaminophen] was run?
A: Its IC50 is 754 µM.

Q: For lipopolysaccharide [LPS], which “increase in IL-6 secretion” value (IL-6 secretion) is on record?
A: Its value is “tenfold increase; also recorded: elevated levels of IL-6 secretion”.
